Earlier results as cited in US20100022659A1, “Methods and Compositions for the Treatment of CNS-Related Conditions” (priority 2004, published 2010).
Where two headings read alike, the source gives them in different places.

Conditions: humans, cited from earlier work
[1] = MAO inhibitors/GAPDHais, Table 2

Row | Compound | Human PK [1] | Human PK (NMDAr antagonists, Table 1)
1 | Desmethyldeprenyl | 3.8 to 9.5 h | 
2 | C#CCN[C@@H]1CCc2ccccc21 [N-propargyl-1(R)-aminoindan/Rasageline, N-propargyl-1(R)-aminoindan] | 1.8 h | 
3 | CC12CC3CC(C)(C1)CC(N)(C3)C2 [Memantine, 1-amino-3,5-dimethyladamantane] |  | 56 h
4 | CC(N)C12CC3CC(CC(C3)C1)C2 (stereo not shown) [Rimantadine, 1-(1-aminoethyl)adamantane] |  | 25 h
